Source: ChEMBL document CHEMBL1909046, “DrugMatrix in vitro pharmacology data”

How the values were obtained:
[1] = DRUGMATRIX: Phosphodiesterase PDE3 enzyme inhibition (substrate: [3H]cAMP + cAMP); assay type: tissue-based, Homo sapiens; details: platelet; Not Active = under 50% inhibition at 10 µM
[2] = DRUGMATRIX: Glutamate, NMDA, Agonism radioligand binding (ligand: [3H] CGP-39653); assay type: cell membranes, Rattus norvegicus, Wistar, Cerebral cortex, Membrane; details: Not Active = under 50% inhibition at 10 µM
[3] = DRUGMATRIX: Calcium Channel Type L, Phenylalkylamine radioligand binding (ligand: [3H] (-)-Desmethoxyverapamil (D-888)); assay type: cell membranes, Rattus norvegicus, Wistar, Brain, Membrane; details: Not Active = under 50% inhibition at 10 µM
[4] = molecular target: 5-hydroxytryptamine receptor 2B (Homo sapiens, UniProt P41595); assay type: cell membranes, CHO-K1, Membrane; details: cho-k1; also: in other assays of this panel Not Active means under 50% inhibition at 10 µM
Chain of 5-hydroxytryptamine receptor 2B (P41595 whole entry): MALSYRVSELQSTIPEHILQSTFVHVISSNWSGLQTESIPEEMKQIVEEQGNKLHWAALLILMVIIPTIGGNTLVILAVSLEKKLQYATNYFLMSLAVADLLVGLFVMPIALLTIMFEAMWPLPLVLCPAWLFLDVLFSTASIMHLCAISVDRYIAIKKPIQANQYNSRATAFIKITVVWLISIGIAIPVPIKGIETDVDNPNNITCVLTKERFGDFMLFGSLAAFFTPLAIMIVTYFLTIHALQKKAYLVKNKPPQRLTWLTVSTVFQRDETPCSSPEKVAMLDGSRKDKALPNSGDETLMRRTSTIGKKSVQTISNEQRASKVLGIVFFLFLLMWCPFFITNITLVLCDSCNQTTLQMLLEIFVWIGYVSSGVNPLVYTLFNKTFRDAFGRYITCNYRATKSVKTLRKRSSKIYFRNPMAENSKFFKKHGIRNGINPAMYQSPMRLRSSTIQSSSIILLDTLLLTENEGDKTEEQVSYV

Cytochrome P450 2E1 = Cytochrome P450 2E1 (Homo sapiens, UniProt P05181); details: bti-tn-5b1-4; also: in other assays of this panel Not Active means under 50% inhibition at 10 µM
Chain of Cytochrome P450 2E1 (P05181 whole entry): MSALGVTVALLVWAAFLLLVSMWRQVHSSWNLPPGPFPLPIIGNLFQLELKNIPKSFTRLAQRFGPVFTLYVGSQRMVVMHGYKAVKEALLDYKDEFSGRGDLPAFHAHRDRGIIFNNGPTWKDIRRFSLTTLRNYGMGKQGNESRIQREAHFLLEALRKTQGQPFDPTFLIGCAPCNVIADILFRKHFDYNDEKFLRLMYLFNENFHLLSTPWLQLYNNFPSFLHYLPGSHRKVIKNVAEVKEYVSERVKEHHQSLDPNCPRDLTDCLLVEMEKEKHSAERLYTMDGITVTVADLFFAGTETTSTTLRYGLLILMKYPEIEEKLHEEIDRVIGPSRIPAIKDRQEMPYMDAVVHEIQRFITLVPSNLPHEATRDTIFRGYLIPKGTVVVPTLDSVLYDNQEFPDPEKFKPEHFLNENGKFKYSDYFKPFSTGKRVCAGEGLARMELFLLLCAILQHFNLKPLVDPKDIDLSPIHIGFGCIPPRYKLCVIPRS

[5] = DRUGMATRIX: Glutamate, NMDA, Phencyclidine radioligand binding (ligand: [3H] TCP); assay type: cell membranes, Rattus norvegicus, Wistar, Cerebral cortex, Membrane; details: Not Active = under 50% inhibition at 10 µM
[6] = molecular target: Voltage-gated inwardly rectifying potassium channel KCNH2 (Homo sapiens, UniProt Q12809); details: hek293; also: in other assays of this panel Not Active means under 50% inhibition at 10 µM
Chain of Voltage-gated inwardly rectifying potassium channel KCNH2 (Q12809 whole entry): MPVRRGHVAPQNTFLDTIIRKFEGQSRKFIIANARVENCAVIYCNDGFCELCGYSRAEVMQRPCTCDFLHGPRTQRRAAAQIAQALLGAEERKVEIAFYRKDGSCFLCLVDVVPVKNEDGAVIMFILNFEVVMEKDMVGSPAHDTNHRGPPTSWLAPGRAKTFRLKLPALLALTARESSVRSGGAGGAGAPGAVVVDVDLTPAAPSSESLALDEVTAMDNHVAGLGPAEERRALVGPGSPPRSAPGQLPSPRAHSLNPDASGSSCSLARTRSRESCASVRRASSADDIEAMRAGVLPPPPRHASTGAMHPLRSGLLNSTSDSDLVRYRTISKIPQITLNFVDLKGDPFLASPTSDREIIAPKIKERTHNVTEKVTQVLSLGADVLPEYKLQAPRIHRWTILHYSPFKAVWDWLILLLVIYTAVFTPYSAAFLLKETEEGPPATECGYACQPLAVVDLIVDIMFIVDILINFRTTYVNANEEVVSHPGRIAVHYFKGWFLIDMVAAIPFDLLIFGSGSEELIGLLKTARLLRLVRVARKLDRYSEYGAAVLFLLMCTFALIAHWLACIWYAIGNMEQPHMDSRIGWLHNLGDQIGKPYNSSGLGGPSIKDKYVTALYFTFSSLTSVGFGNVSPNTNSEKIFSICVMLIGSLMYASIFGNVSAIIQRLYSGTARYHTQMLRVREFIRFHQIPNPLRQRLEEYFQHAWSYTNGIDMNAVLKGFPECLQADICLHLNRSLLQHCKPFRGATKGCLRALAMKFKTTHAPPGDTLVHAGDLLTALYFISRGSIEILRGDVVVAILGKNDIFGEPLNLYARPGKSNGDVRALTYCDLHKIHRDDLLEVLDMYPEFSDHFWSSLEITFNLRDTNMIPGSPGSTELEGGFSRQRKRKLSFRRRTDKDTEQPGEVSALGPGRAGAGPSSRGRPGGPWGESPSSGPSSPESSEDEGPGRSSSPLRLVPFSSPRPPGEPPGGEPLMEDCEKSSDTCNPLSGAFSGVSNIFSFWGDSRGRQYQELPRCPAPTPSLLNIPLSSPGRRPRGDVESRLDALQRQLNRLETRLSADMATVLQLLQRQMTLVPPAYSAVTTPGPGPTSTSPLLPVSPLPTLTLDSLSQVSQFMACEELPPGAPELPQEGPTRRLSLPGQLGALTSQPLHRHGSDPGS

CC(=O)O[C@H]1C(=O)[C@@]2(C)[C@H]([C@H](OC(=O)c3ccccc3)[C@]3(O)C[C@H](OC(=O)[C@H](O)[C@@H](NC(=O)c4ccccc4)c4ccccc4)C(C)=C1C3(C)C)[C@]1(OC(C)=O)CO[C@@H]1C[C@@H]2O [PACLITAXEL]
Not Active: IC50 [1] | Ki [1] | IC50 [2] | Ki [2] | IC50 [3] | Ki [3] | IC50 [4] | IC50 (Cytochrome P450 2E1) | Ki (Cytochrome P450 2E1) | IC50 [5] | Ki [5] | IC50 [6] | Ki [6]

CCCOc1ccc(C(=O)OCCN(CC)CC)cc1N [PROPARACAINE]
Not Active: IC50 [1] | Ki [1] | IC50 [2] | Ki [2] | IC50 [3] | Ki [3] | IC50 [4] | IC50 (Cytochrome P450 2E1) | Ki (Cytochrome P450 2E1) | IC50 [5] | Ki [5] | IC50 [6] | Ki [6]

O=C(N/N=C/c1ccc([N+](=O)[O-])o1)c1cc([N+](=O)[O-])cc([N+](=O)[O-])c1O [NIFURSOL]
Not Active: IC50 [1] | Ki [1] | IC50 [2] | Ki [2] | IC50 [3] | Ki [3] | IC50 [4] | IC50 (Cytochrome P450 2E1) | Ki (Cytochrome P450 2E1) | IC50 [5] | Ki [5] | IC50 [6] | Ki [6]

CC(=O)Oc1ccc(C(c2ccc(OC(C)=O)cc2)c2ccccn2)cc1 [BISACODYL]
Not Active: IC50 [1] | Ki [1] | IC50 [2] | Ki [2] | IC50 [3] | Ki [3] | IC50 [4] | IC50 (Cytochrome P450 2E1) | Ki (Cytochrome P450 2E1) | IC50 [5] | Ki [5] | IC50 [6] | Ki [6]

CN(C)[C@@H]1C(O)=C(C(N)=O)C(=O)[C@@]2(O)C(O)=C3C(=O)c4c(O)ccc(Cl)c4[C@@](C)(O)[C@H]3C[C@@H]12 [CHLORTETRACYCLINE]
Not Active: IC50 [1] | Ki [1] | IC50 [2] | Ki [2] | IC50 [3] | Ki [3] | IC50 [4] | IC50 (Cytochrome P450 2E1) | Ki (Cytochrome P450 2E1) | IC50 [5] | Ki [5] | IC50 [6] | Ki [6]

Nc1ccn([C@@H]2O[C@H](CO)[C@@H](O)[C@@H]2O)c(=O)n1 [CYTARABINE]
Not Active: IC50 [1] | Ki [1] | IC50 [2] | Ki [2] | IC50 [3] | Ki [3] | IC50 [4] | IC50 (Cytochrome P450 2E1) | Ki (Cytochrome P450 2E1) | IC50 [5] | Ki [5] | IC50 [6] | Ki [6]

CCC1(CCC(C)C)C(=O)NC(=O)NC1=O [AMOBARBITAL]
Not Active: IC50 [1] | Ki [1] | IC50 [2] | Ki [2] | IC50 [3] | Ki [3] | IC50 [4] | IC50 (Cytochrome P450 2E1) | Ki (Cytochrome P450 2E1) | IC50 [5] | Ki [5] | IC50 [6] | Ki [6]

AURANOFIN
Not Active: IC50 [1] | Ki [1] | IC50 [2] | Ki [2] | IC50 [3] | Ki [3] | IC50 [4] | Ki [4] | IC50 (Cytochrome P450 2E1) | Ki (Cytochrome P450 2E1) | IC50 [5] | Ki [5] | IC50 [6] | Ki [6]

O=C/C=C/c1ccccc1
Not Active: IC50 [1] | Ki [1] | IC50 [2] | Ki [2] | IC50 [3] | Ki [3] | IC50 [4] | IC50 (Cytochrome P450 2E1) | Ki (Cytochrome P450 2E1) | IC50 [5] | Ki [5] | IC50 [6] | Ki [6]

C=CCc1ccc(O)c(OC)c1 [EUGENOL]
Not Active: IC50 [1] | Ki [1] | IC50 [2] | Ki [2] | IC50 [3] | Ki [3] | IC50 [4] | IC50 (Cytochrome P450 2E1) | Ki (Cytochrome P450 2E1) | IC50 [5] | Ki [5] | IC50 [6] | Ki [6]

COC1=C(OC)C(=O)C(CCCCCCCCCCO)=C(C)C1=O [IDEBENONE]
Not Active: IC50 [1] | Ki [1] | IC50 [2] | Ki [2] | IC50 [3] | Ki [3] | IC50 [4] | IC50 (Cytochrome P450 2E1) | Ki (Cytochrome P450 2E1) | IC50 [5] | Ki [5] | IC50 [6] | Ki [6]

Oc1cccc(O)c1O [PYROGALLOL]
Not Active: IC50 [1] | Ki [1] | IC50 [2] | Ki [2] | IC50 [3] | Ki [3] | IC50 [4] | IC50 (Cytochrome P450 2E1) | Ki (Cytochrome P450 2E1) | IC50 [5] | Ki [5] | IC50 [6] | Ki [6]
